From the NIST ThermoML archive (doi:10.1016/j.jct.2015.04.029)
Numbers after ± are expanded uncertainties.

Legend:
[1] = wn = mass fraction of the nth substance listed; conditions: for surface tension liquid-gas: Maximal bubble pressure; for mass density: 100 kPa, Liquid, Vibrating tube method
[2] = refractive index (Na D-line) (dimensionless); wn = mass fraction of the nth substance listed; conditions: 100 kPa, Liquid, Standard Abbe refractometry

CCC[n+]1ccn(C)c1.N[C@@H](CO)C(=O)[O-] [1-methyl-3-propylimidazolium L-serinate] + O
Conditions	mass density [kg/m3]	refractive index	surface tension liquid-gas [mN/m]
[1], 298.15 K, w2 = 0.00636	1181.69 ± 1.1	–	–
[1], 298.15 K, w2 = 0.00641	–	–	50.2 ± 0.5
[1], 298.15 K, w2 = 0.00785	1181.73 ± 1.1	–	–
[1], 298.15 K, w2 = 0.00791	–	–	50.8 ± 0.5
[1], 298.15 K, w2 = 0.00939	1181.78 ± 1.1	–	–
[1], 298.15 K, w2 = 0.00942	–	–	51.7 ± 0.5
[1], 298.15 K, w2 = 0.0109	1181.82 ± 1.1	–	–
[1], 298.15 K, w2 = 0.01091	–	–	52.5 ± 0.5
[1], 298.15 K, w2 = 0.0124	1181.86 ± 1.1	–	–
[1], 298.15 K, w2 = 0.01241	–	–	53.2 ± 0.5
[1], 303.15 K, w2 = 0.00636	1178.52 ± 1.1	–	–
[1], 303.15 K, w2 = 0.00641	–	–	49.9 ± 0.5
[1], 303.15 K, w2 = 0.00785	1178.56 ± 1.1	–	–
[1], 303.15 K, w2 = 0.00791	–	–	50.5 ± 0.5
[1], 303.15 K, w2 = 0.00939	1178.61 ± 1.1	–	–
[1], 303.15 K, w2 = 0.00942	–	–	51.4 ± 0.5
[1], 303.15 K, w2 = 0.0109	1178.65 ± 1.1	–	–
[1], 303.15 K, w2 = 0.01091	–	–	52.1 ± 0.5
[1], 303.15 K, w2 = 0.0124	1178.69 ± 1.1	–	–
[1], 303.15 K, w2 = 0.01241	–	–	52.9 ± 0.5
[1], 308.15 K, w2 = 0.00636	1175.36 ± 1.1	–	–
[1], 308.15 K, w2 = 0.00641	–	–	49.6 ± 0.5
[1], 308.15 K, w2 = 0.00785	1175.39 ± 1.1	–	–
[1], 308.15 K, w2 = 0.00791	–	–	50.2 ± 0.5
[1], 308.15 K, w2 = 0.00939	1175.43 ± 1.1	–	–
[1], 308.15 K, w2 = 0.00942	–	–	50.9 ± 0.5
[1], 308.15 K, w2 = 0.0109	1175.47 ± 1.1	–	–
[1], 308.15 K, w2 = 0.01091	–	–	51.8 ± 0.5
[1], 308.15 K, w2 = 0.0124	1175.52 ± 1.1	–	–
[1], 308.15 K, w2 = 0.01241	–	–	52.5 ± 0.5
[1], 313.15 K, w2 = 0.00636	1172.21 ± 1.1	–	–
[1], 313.15 K, w2 = 0.00641	–	–	49.2 ± 0.5
[1], 313.15 K, w2 = 0.00785	1172.24 ± 1.1	–	–
[1], 313.15 K, w2 = 0.00791	–	–	49.9 ± 0.5
[1], 313.15 K, w2 = 0.00939	1172.29 ± 1.1	–	–
[1], 313.15 K, w2 = 0.00942	–	–	50.5 ± 0.5
[1], 313.15 K, w2 = 0.0109	1172.33 ± 1.1	–	–
[1], 313.15 K, w2 = 0.01091	–	–	51.4 ± 0.5
[1], 313.15 K, w2 = 0.0124	1172.37 ± 1.1	–	–
[1], 313.15 K, w2 = 0.01241	–	–	52 ± 0.5
[1], 318.15 K, w2 = 0.00636	1169.06 ± 1.1	–	–
[1], 318.15 K, w2 = 0.00641	–	–	48.8 ± 0.5
[1], 318.15 K, w2 = 0.00785	1169.09 ± 1.1	–	–
[1], 318.15 K, w2 = 0.00791	–	–	49.5 ± 0.5
[1], 318.15 K, w2 = 0.00939	1169.13 ± 1.1	–	–
[1], 318.15 K, w2 = 0.00942	–	–	50.1 ± 0.5
[1], 318.15 K, w2 = 0.0109	1169.18 ± 1.1	–	–
[1], 318.15 K, w2 = 0.01091	–	–	50.9 ± 0.5
[1], 318.15 K, w2 = 0.0124	1169.22 ± 1.1	–	–
[1], 318.15 K, w2 = 0.01241	–	–	51.6 ± 0.5
[1], 323.15 K, w2 = 0.00636	1165.86 ± 1.1	–	–
[1], 323.15 K, w2 = 0.00641	–	–	48.5 ± 0.5
[1], 323.15 K, w2 = 0.00785	1165.89 ± 1.1	–	–
[1], 323.15 K, w2 = 0.00791	–	–	49.2 ± 0.5
[1], 323.15 K, w2 = 0.00939	1165.94 ± 1.1	–	–
[1], 323.15 K, w2 = 0.00942	–	–	49.8 ± 0.5
[1], 323.15 K, w2 = 0.0109	1165.98 ± 1.1	–	–
[1], 323.15 K, w2 = 0.01091	–	–	50.6 ± 0.5
[1], 323.15 K, w2 = 0.0124	1166.03 ± 1.1	–	–
[1], 323.15 K, w2 = 0.01241	–	–	51.2 ± 0.5
[1], 328.15 K, w2 = 0.00636	1162.76 ± 1.1	–	–
[1], 328.15 K, w2 = 0.00641	–	–	48.2 ± 0.5
[1], 328.15 K, w2 = 0.00785	1162.79 ± 1.1	–	–
[1], 328.15 K, w2 = 0.00791	–	–	48.8 ± 0.5
[1], 328.15 K, w2 = 0.00939	1162.83 ± 1.1	–	–
[1], 328.15 K, w2 = 0.00942	–	–	49.5 ± 0.5
[1], 328.15 K, w2 = 0.0109	1162.87 ± 1.1	–	–
[1], 328.15 K, w2 = 0.01091	–	–	50.2 ± 0.5
[1], 328.15 K, w2 = 0.0124	1162.91 ± 1.1	–	–
[1], 328.15 K, w2 = 0.01241	–	–	50.8 ± 0.5
[1], 333.15 K, w2 = 0.00636	1159.67 ± 1.1	–	–
[1], 333.15 K, w2 = 0.00641	–	–	47.8 ± 0.5
[1], 333.15 K, w2 = 0.00785	1159.7 ± 1.1	–	–
[1], 333.15 K, w2 = 0.00791	–	–	48.5 ± 0.5
[1], 333.15 K, w2 = 0.00939	1159.74 ± 1.1	–	–
[1], 333.15 K, w2 = 0.00942	–	–	49.1 ± 0.5
[1], 333.15 K, w2 = 0.0109	1159.79 ± 1.1	–	–
[1], 333.15 K, w2 = 0.01091	–	–	49.7 ± 0.5
[1], 333.15 K, w2 = 0.0124	1159.83 ± 1.1	–	–
[1], 333.15 K, w2 = 0.01241	–	–	50.4 ± 0.5
[1], 338.15 K, w2 = 0.00636	1156.58 ± 1.1	–	–
[1], 338.15 K, w2 = 0.00641	–	–	47.5 ± 0.5
[1], 338.15 K, w2 = 0.00785	1156.62 ± 1.1	–	–
[1], 338.15 K, w2 = 0.00791	–	–	48.2 ± 0.5
[1], 338.15 K, w2 = 0.00939	1156.65 ± 1.1	–	–
[1], 338.15 K, w2 = 0.00942	–	–	48.7 ± 0.5
[1], 338.15 K, w2 = 0.0109	1156.69 ± 1.1	–	–
[1], 338.15 K, w2 = 0.01091	–	–	49.3 ± 0.5
[1], 338.15 K, w2 = 0.0124	1156.73 ± 1.1	–	–
[1], 338.15 K, w2 = 0.01241	–	–	50 ± 0.5
[2], 298.15 K, w2 = 0.00614	–	1.5158 ± 0.0005	–
[2], 298.15 K, w2 = 0.00766	–	1.5154 ± 0.0005	–
[2], 298.15 K, w2 = 0.00917	–	1.5149 ± 0.0005	–
[2], 298.15 K, w2 = 0.01069	–	1.5144 ± 0.0005	–
[2], 298.15 K, w2 = 0.01217	–	1.514 ± 0.0005	–
[2], 303.15 K, w2 = 0.00614	–	1.5145 ± 0.0005	–
[2], 303.15 K, w2 = 0.00766	–	1.514 ± 0.0005	–
[2], 303.15 K, w2 = 0.00917	–	1.5135 ± 0.0005	–
[2], 303.15 K, w2 = 0.01069	–	1.5131 ± 0.0005	–
[2], 303.15 K, w2 = 0.01217	–	1.5125 ± 0.0005	–
[2], 308.15 K, w2 = 0.00614	–	1.5131 ± 0.0005	–
[2], 308.15 K, w2 = 0.00766	–	1.5126 ± 0.0005	–
[2], 308.15 K, w2 = 0.00917	–	1.5119 ± 0.0005	–
[2], 308.15 K, w2 = 0.01069	–	1.5115 ± 0.0005	–
[2], 308.15 K, w2 = 0.01217	–	1.5109 ± 0.0005	–
[2], 313.15 K, w2 = 0.00614	–	1.5118 ± 0.0005	–
[2], 313.15 K, w2 = 0.00766	–	1.5113 ± 0.0005	–
[2], 313.15 K, w2 = 0.00917	–	1.5106 ± 0.0005	–
[2], 313.15 K, w2 = 0.01069	–	1.5102 ± 0.0005	–
[2], 313.15 K, w2 = 0.01217	–	1.5095 ± 0.0005	–
[2], 318.15 K, w2 = 0.00614	–	1.5106 ± 0.0005	–
[2], 318.15 K, w2 = 0.00766	–	1.5099 ± 0.0005	–
[2], 318.15 K, w2 = 0.00917	–	1.5092 ± 0.0005	–
[2], 318.15 K, w2 = 0.01069	–	1.5087 ± 0.0005	–
[2], 318.15 K, w2 = 0.01217	–	1.5081 ± 0.0005	–
[2], 323.15 K, w2 = 0.00614	–	1.5094 ± 0.0005	–
[2], 323.15 K, w2 = 0.00766	–	1.5086 ± 0.0005	–
[2], 323.15 K, w2 = 0.00917	–	1.5078 ± 0.0005	–
[2], 323.15 K, w2 = 0.01069	–	1.5072 ± 0.0005	–
[2], 323.15 K, w2 = 0.01217	–	1.5065 ± 0.0005	–
[2], 328.15 K, w2 = 0.00614	–	1.5081 ± 0.0005	–
[2], 328.15 K, w2 = 0.00766	–	1.5072 ± 0.0005	–
[2], 328.15 K, w2 = 0.00917	–	1.5063 ± 0.0005	–
[2], 328.15 K, w2 = 0.01069	–	1.5056 ± 0.0005	–
[2], 328.15 K, w2 = 0.01217	–	1.505 ± 0.0005	–
[2], 333.15 K, w2 = 0.00614	–	1.5068 ± 0.0005	–
[2], 333.15 K, w2 = 0.00766	–	1.5058 ± 0.0005	–
[2], 333.15 K, w2 = 0.00917	–	1.5049 ± 0.0005	–
[2], 333.15 K, w2 = 0.01069	–	1.5042 ± 0.0005	–
[2], 333.15 K, w2 = 0.01217	–	1.5035 ± 0.0005	–
[2], 338.15 K, w2 = 0.00614	–	1.5054 ± 0.0005	–
[2], 338.15 K, w2 = 0.00766	–	1.5044 ± 0.0005	–
[2], 338.15 K, w2 = 0.00917	–	1.5036 ± 0.0005	–
[2], 338.15 K, w2 = 0.01069	–	1.5028 ± 0.0005	–
[2], 338.15 K, w2 = 0.01217	–	1.5021 ± 0.0005	–
